Measurements published in patent US10154974B1, “Use of abscisic acid for the prevention and treatment of malaria” (The Regents of the University of California, priority 2015, dated 2018).

What was measured:
P. falciparum = assay: Pfs16 and Pfs25 expression in parasite-fed mosquito midguts (parasite death); format: in vivo; conditions: between 18 and 24 hours post-bloodmeal
Protocol: Expression levels are shown of P. falciparum genes Pfs16 and Pfs25 in ABA-supplemented parasite-fed mosquito midguts. Data are normalized to mosquito and parasite ribosomal genes s7 and A18s. Each dot represents one replicate of 10 pooled midguts. Data are shown as fold change relative to control and were analyzed by one sample t-test. * p<0.05.

[1] = test system: parasite-specific IgG and IgG1; assay: Western blot of infected RBC protein probed with mouse plasma; format: in vivo; conditions: P. yoelii-infected mice
Text: FIG. 26A-C illustrate that ABA-supplementation increased levels of parasite-specific IgG and IgG1 in mouse plasma. Shown are western blots of protein from uninfected and P. yoelii-infected RBCs probed with plasma from uninfected, P. yoelii-infected, ABA-supplemented P. yoelii-infected mice followed by IgG1 (FIG. 26A) and total IgG (FIG. 26B) secondary antibodies. Also shown is a densitometry analysis (FIG. 26C) of IgG1- and total IgG-bound protein from infected RBCs. Data are shown as fold change between control P. yoelii and ABA-supplemented P. yoelii plasma.

gsk3 = gsk3 phosphorylation in mosquito midgut; format: in vivo, Anopheles stephensi; conditions: midguts of ABA-treated, P. falciparum-fed mosquitoes
Protocol: (§1) Fold change is shown in levels of phosphorylated AMPK (FIG. 13A), and gsk3 (FIG. 13B) in the midguts of ABA-treated, P. falciparum-fed mosquitoes compared to controls. Each dot represents one replicate of 15 pooled midguts. Data were analyzed by one sample t-test. * p<0.05.

P. yoelii 17XNL [2] = assay: P. yoelii 17XNL parasitemia in C57Bl/6 and casp1-/- mice; format: in vivo
Protocol: Daily parasitemia of three separate cohorts of mice with and without ABA supplementation. 3 to 5 mice were used per treatment in each infection. Data were analyzed by one-sided, unpaired t-test. # p<0.1, * p<0.05, ** p<0.005.
FIG. 28A-B illustrate that ABA has no effect on parasitemia in caspase-1 knockout mice. […] 4-5 mice were used per treatment group. Data were analyzed by unpaired t-test. # p<0.1 * p<0.05.

[3] = test system: cytokine and immune-regulators; assay: Cytokine and immune-regulator mRNA in spleen and liver; format: in vivo; conditions: CD1 mice, day 4 and 7 post-infection
Protocol: FIG. 23A-B illustrate that ABA supplementation alters cytokine expression in the spleen and liver of infected mice consistent with enhanced IgG production and inflammasome activation. Shown are mRNA levels of cytokine and immune-regulators in the spleen (FIG. 23A) and liver (FIG. 23B) of control and ABA-supplemented CD1 mice on day 4 and 7 post-infection with P. yoelii 17XNL. Data are shown as −Δct, normalized to β-actin and were analyzed by unpaired t-test. # p<0.1 * p<0.05 ** p<0.01.

AMPK = AMPK phosphorylation in mosquito midgut; format: in vivo, Anopheles stephensi; conditions: midguts of ABA-treated, P. falciparum-fed mosquitoes
Protocol: as §1

[4] = test system: inflammatory bowel disease (IBD); conditions: ABA supplementation; cited from earlier work
[5] = test system: prospero, escargot, ATG6, ATG8; assay: Expression of midgut epithelial cell turnover genes; format: in vivo, Anopheles stephensi; conditions: P. falciparum-fed mosquito midguts
Protocol: Data are shown as fold changed compared to control-treated mosquitoes. Each dot represents one replicate of 10 pooled midguts. Data were analyzed by one sample t-test. * p<0.05. nd indicates the prospero was not detectable at 72 or 96 hours.

P. yoelii 17XNL [6] = assay: P. yoelii 17XNL infection of CD1 mice given ABA in drinking water (parasitemia, gametocytemia); format: in vivo
Protocol: 6-8 week old female CD1 mice (Jackson) were housed four to a cage and provided with unsupplemented water or water supplemented with 2.56 mM (±)-abscisic acid (CAS Registry Number 14375-45-2) obtained from Sigma-Aldrich (Catalog No. A1049). Water and supplemented water were changed daily. […] Mouse weight, water consumption per cage, and parasitemia were monitored daily. Parasitemia was determined from thin blood films stained with Giemsa. Parasitemia was measured as the percentage of infected RBCs divided by total RBCs, while gametocytemia was measured as the proportion of gametocyte-containing RBCs of total infected RBCs. Four mice were used per group in replicated studies. Daily parasitemias and gametocytemias were analyzed by unpaired t-test.

P. falciparum 3D7 = assay: P. falciparum gametocyte formation assay; format: cell-based; conditions: 10 nM or 100 nM ABA, 6, 8 or 10 days post culture synchronization
Protocol: Studies of the effects of ABA on gametocyte formation were performed with P. falciparum 3D7 engineered to express GFP under the control of alpha tubulin II and Pfs25 promoters. Parasite cultures were synchronized using sorbitol. At 48 hours post-synchronization, 200 μL aliquots of parasite culture and complete RPMI medium were placed in a 96-well flat-bottomed plate and treated with 10 nM ABA, 100 nM ABA, or a diluent control. Media and treatments were refreshed every 48 hours. At 4, 6 and 8 days after the start of treatment, separate aliquots were harvested, media was removed, and replaced with 10% formalin for 1 hour at room temperature. Formalin was removed and replaced with PBS before gametocyte levels were measured by flow cytometry using a FACS Calibur flow cytometer (BD Biosciences) with a GFP filter. Four replicates were carried out, each using a separate parasite culture passage. Relative changes in gametocyte numbers were normalized to controls set at 1 and analyzed by one-sample t-test.

IgG1 and IgG2a = assay: IgM and IgG antibody isotype concentrations in mouse plasma; format: in vivo, mice; conditions: days 9, 11 and 13 post-infection
Protocol: FIG. 24 illustrates that ABA supplementation increases levels of IgG1 and IgG2a in plasma. Concentrations are shown of IgM and IgG antibody isotypes in mouse plasma with and without ABA supplementation on days 9, 11 and 13 post-infection with P. yoelii 17XNL. Data were analyzed by unpaired t-test.

P. falciparum NF54 = assay: P. falciparum asexual growth assay; format: cell-based; conditions: 10 nM or 100 nM ABA, 48 and 96 hours, relative to untreated control
Protocol: P. falciparum NF54 cultures were synchronized and aliquots plated in complete RPMI 1640 with HEPES, hypoxanthine, and 10% heat inactivated human serum. Parasites were treated with 10 nM ABA, 100 nM ABA, or a diluent control and incubated at 37° C. for 48 or 96 hours before culture media was replaced with 10% formalin in RPMI 1640. Red blood cells were stained with 10 ug/mL propidium iodide (Sigma-Aldrich) in PBS at room temperature for 1 hour and infected cells counted with FACS Calibur flow cytometer (BD Biosciences). Four replicates were carried out, each using a separate parasite culture passage. Relative changes in growth were normalized to controls set at 1 and analyzed by one-sample t-test.

**Q.** With CC1=CC(=O)CC(C)(C)[C@@]1(O)/C=C/C(C)=C\C(=O)O (racemic) [ABA, (2Z,4E)-5-[(1S)-1-hydroxy-2,6,6-trimethyl-4-oxocyclohex-2-en-1-yl]-3-methylpenta-2,4-dienoic acid] as the compound, how does the “parasite death in mosquito midgut (Pfs16 and Pfs25 expression)” value (P. falciparum) read?
**A.** increased parasite death

**Q.** And the “levels of parasite-specific IgG and IgG1 in mouse plasma” value [1]?
**A.** increased

**Q.** And the “phosphorylation of gsk3” value (gsk3)?
**A.** alters phosphorylation

**Q.** And the parasitemia (P. yoelii 17XNL [2]; C57Bl/6 mice, three cohorts)?
**A.** significantly reduces

**Q.** What about the parasitemia (P. yoelii 17XNL [2]; caspase-1 knockout mice) of the same compound?
**A.** no effect

**Q.** What about the “cytokine expression in the spleen and liver” value [3] of the same compound?
**A.** alters

**Q.** And the “phosphorylation of AMPK” value (AMPK)?
**A.** alters phosphorylation

**Q.** What about the “epithelial erosion and leukocyte infiltration” value [4] of the same compound?
**A.** reduced

**Q.** What about the “expression of genes involved in midgut epithelial cell turnover” value [5] of the same compound?
**A.** reduces expression

**Q.** And the parasitemia (P. yoelii 17XNL [6]; CD1 mice, day 4 to day 7 post-infection, relative to controls (Example 1))?
**A.** reduced

**Q.** What about the gametocytemia (P. yoelii 17XNL [6]; CD1 mice, day 6 of infection (Example 1)) of the same compound?
**A.** reduced

**Q.** And the gametocytemia (P. yoelii 17XNL [6]; day 5 post-infection (Example 2))?
**A.** reduced

**Q.** What about the parasitemia (P. yoelii 17XNL [6]; starting on day 3 post-infection, compared to controls (Example 2)) of the same compound?
**A.** reduced

**Q.** What about the gametocyte levels (P. falciparum 3D7) of the same compound?
**A.** no effect

**Q.** And the “levels of IgG1 in plasma” value (IgG1 and IgG2a)?
**A.** increases

**Q.** What about the “levels of IgG2a in plasma” value (IgG1 and IgG2a) of the same compound?
**A.** increases

**Q.** And the asexual growth (P. falciparum NF54)?
**A.** no effect
